According to the NIST ThermoML archive (doi:10.1016/j.jct.2006.03.015):

Assay: mn = molality of the nth substance listed, in mol/kg
Conditions: 101 kPa, Liquid; for apparent molar heat capacity: Flow calorimetry

CC(=O)N[C@@H](CC(N)=O)C(N)=O [(S)-2-acetamidosuccinamide] + O
Conditions | apparent molar heat capacity [J/K/mol] | mass density [kg/m3]
288.15 K, m1 = 0.0291 | 307.3 | 1000.53
288.15 K, m1 = 0.03172 | 310 | 1000.65
288.15 K, m1 = 0.0368 | 307.6 | 1000.9
288.15 K, m1 = 0.03929 | 308.2 | 1001.03
288.15 K, m1 = 0.04222 | 309.5 | 1001.17
288.15 K, m1 = 0.04651 | 305.7 | 1001.38
288.15 K, m1 = 0.05278 | 306.6 | 1001.68
288.15 K, m1 = 0.05772 | 302.8 | 1001.92
288.15 K, m1 = 0.06036 | 303.7 | 1002.04
288.15 K, m1 = 0.06513 | 306.5 | 1002.28
288.15 K, m1 = 0.07059 | 308 | 1002.54
298.15 K, m1 = 0.02807 | 333.1 | 998.384
298.15 K, m1 = 0.03296 | 329.6 | 998.617
298.15 K, m1 = 0.0381 | 333.3 | 998.865
298.15 K, m1 = 0.04348 | 330.6 | 999.124
298.15 K, m1 = 0.04618 | 330.2 | 999.246
298.15 K, m1 = 0.05136 | 330.7 | 999.495
298.15 K, m1 = 0.05666 | 333.4 | 999.741
298.15 K, m1 = 0.06197 | 330.9 | –
298.15 K, m1 = 0.06198 | 333 | 999.991
298.15 K, m1 = 0.06667 | 332.5 | 1000.22
298.15 K, m1 = 0.07247 | 331 | 1000.49
313.15 K, m1 = 0.03215 | 353.5 | 993.709
313.15 K, m1 = 0.03777 | 356 | 993.972
313.15 K, m1 = 0.04273 | 355.6 | 994.186
313.15 K, m1 = 0.04501 | 361.1 | 994.291
313.15 K, m1 = 0.0481 | 358.6 | 994.444
313.15 K, m1 = 0.05166 | 353.7 | 994.598
313.15 K, m1 = 0.05423 | 357.7 | 994.726
313.15 K, m1 = 0.06055 | 358.6 | 995.006
313.15 K, m1 = 0.06612 | 356.4 | 995.264
313.15 K, m1 = 0.07077 | 355.6 | 995.471
313.15 K, m1 = 0.07187 | 357.7 | 995.524
328.15 K, m1 = 0.03205 | 378.3 | 987.15
328.15 K, m1 = 0.03805 | 377.4 | 987.418
328.15 K, m1 = 0.0428 | 373.4 | 987.633
328.15 K, m1 = 0.04683 | 379.4 | 987.812
328.15 K, m1 = 0.05183 | 377.2 | 988.042
328.15 K, m1 = 0.05694 | 380.7 | 988.263
328.15 K, m1 = 0.06115 | 377.1 | 988.455
328.15 K, m1 = 0.06488 | 376.5 | 988.623
328.15 K, m1 = 0.06958 | 380.2 | 988.834
